Tests used:
[1] = test system: Detoxification protein genes; assay: DNA chip mRNA expression in yeast, detoxification protein genes (Table 8); assay type: cell-based, Saccharomyces cerevisiae S288C
In short: (§1)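 In this screen, yeast in logarithmic growth are challenged for two hours with a toxic substance at a non-lethal inhibitory concentration. Their mRNA, converted to Cy3- or Cy5-labeled cDNA, hybridizes at 65° C. to a chip spanning every yeast gene, and expression is expressed as a ratio to untreated cells.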

[2] = test system: DNA repair protein genes; assay: DNA chip mRNA expression in yeast, DNA repair protein genes (Table 3); assay type: cell-based, Saccharomyces cerevisiae S288C; conditions: incubated two hours, concentrations as in the 1st table
In short: as §1

Measured: The level of expressed mRNA in the presence of chemical substance/The level of expressed mRNA in the absence of chemical substance

C=CC=O [(14), acrolein]
1.5: [1]; yeast gene YGR197C | [1]; yeast gene YHR053C | [1]; yeast gene YHR055C | [1]; yeast gene YKR066C | [1]; yeast gene YOR031W | [2]; yeast gene YOL043C
4.7: [2]; yeast gene YDL059C | [2]; yeast gene YMR096W
0.7: [1]; yeast gene YLL028W | [2]; yeast gene YDR369C
1.9: [2]; yeast gene YGL249W
1.0: [1]; yeast gene YFL050C | [1]; yeast gene YJL101C | [1]; yeast gene YOL158C | [2]; yeast gene YBR073W | [2]; yeast gene YBR272C | [2]; yeast gene YCR014C | [2]; yeast gene YEL037C | [2]; yeast gene YGL127C | [2]; yeast gene YIL143C | [2]; yeast gene YIL153W | [2]; yeast gene YJL026W | [2]; yeast gene YJR046W | [2]; yeast gene YKL145W | [2]; yeast gene YLR103C | [2]; yeast gene YML032C
0.6: [1]; yeast gene YPL163C
1.1: [1]; yeast gene YHL040C | [1]; yeast gene YIR002C | [1]; yeast gene YKL064W | [1]; yeast gene YLL057C | [1]; yeast gene YMR038C | [1]; yeast gene YNL241C | [1]; yeast gene YOR251C | [2]; yeast gene YBL019W | [2]; yeast gene YDR054C | [2]; yeast gene YIL036W | [2]; yeast gene YIR002C | [2]; yeast gene YLR233C | [2]; yeast gene YML058W | [2]; yeast gene YNL312W | [2]; yeast gene YPL194W
1.4: [1]; yeast gene YBR293W | [1]; yeast gene YDL100C | [1]; yeast gene YEL027W | [1]; yeast gene YNL259C | [2]; yeast gene YAR007C | [2]; yeast gene YJR052W | [2]; yeast gene YNL261W
0.4: [1]; yeast gene YEL065W | [1]; yeast gene YOR247W
0.5: [1]; yeast gene YHL047C | [1]; yeast gene YOR273C
7.3: [2]; yeast gene YFL014W
2.5: [1]; yeast gene YCL035C | [1]; yeast gene YIR038C
2.2: [1]; yeast gene YBR145W | [2]; yeast gene YGR231C
0.9: [1]; yeast gene YDR538W | [1]; yeast gene YGR138C | [1]; yeast gene YGR224W | [2]; yeast gene YGR180C | [2]; yeast gene YOR386W | [2]; yeast gene YPL022W | [2]; yeast gene YPL164C
1.3: [1]; yeast gene YCL069W | [1]; yeast gene YGL254W | [1]; yeast gene YGR088W | [1]; yeast gene YLR046C | [1]; yeast gene YNL239W | [2]; yeast gene YDL017W | [2]; yeast gene YGL058W | [2]; yeast gene YHR164C | [2]; yeast gene YMR035W | [2]; yeast gene YPR025C
1.6: [1]; yeast gene YDL168W | [1]; yeast gene YDR256C | [1]; yeast gene YER185W | [1]; yeast gene YHR008C | [2]; yeast gene YAL015C | [2]; yeast gene YGL163C | [2]; yeast gene YNL250W
3.8: [1]; yeast gene YDR453C
3.7: [1]; yeast gene YBR244W
5.0: [1]; yeast gene YBL064C | [1]; yeast gene YGR209C
2.4: [1]; yeast gene YCR083W
3.1: [2]; yeast gene YGL091C
2.0: [1]; yeast gene YDR513W | [1]; yeast gene YJR104C | [1]; yeast gene YML028W | [1]; yeast gene YML116W | [1]; yeast gene YPR200C | [2]; yeast gene YIL072W
0.8: [1]; yeast gene YGL013C | [1]; yeast gene YMR015C | [2]; yeast gene YER162C
0.3: [1]; yeast gene YOR153W
1.7: [1]; yeast gene YHR048W | [1]; yeast gene YKR106W | [2]; yeast gene YEL019C
4.1: [1]; yeast gene YBR008C
2.1: [1]; yeast gene YLR043C
1.2: [1]; yeast gene YKR105C | [2]; yeast gene YGR258C | [2]; yeast gene YLR288C | [2]; yeast gene YMR072W | [2]; yeast gene YMR284W | [2]; yeast gene YOR005C
10.6: [1]; yeast gene YLL060C
1.8: [1]; yeast gene YKL026C | [2]; yeast gene YDL200C | [2]; yeast gene YNL213C
